Data reported in US8716287B2, “Pharmaceutical compounds” (Sentinel Oncology Limited, priority 2010, dated 2014).
Where a name gives a salt, the structure may show the parent alone. Read-outs that look alike come from different tables or passages of the source.

Molecular target: Chk-1 kinase (Homo sapiens (Human), UniProt O14757)
Assay: Chk-1 kinase inhibiting activity (33P-ATP filter assay, CHKtide substrate)
Assay type: biochemical
Protocol: The compounds of the invention were tested for activity against Chk-1 kinase using the materials and protocols set out below.
Base Reaction buffer: 20 mM Hepes (pH 7.5), 10 mM MgCl2, 1 mM EGTA, 0.02% Brij35, 0.02 mg/ml BSA, 0.1 mM Na3VO4, 2 mM DTT, 1% DMSO
*Required cofactors are added individually to each kinase reaction
(i) Prepare indicated substrate in freshly prepared Base Reaction Buffer
(ii) Deliver any required cofactors to the substrate solution above
(iii) Deliver indicated kinase into the substrate solution and gently mix
(iv) Deliver compounds in DMSO into the kinase reaction mixture
(v) Deliver ^33P-ATP (specific activity 0.01 μCi/μl final) into the reaction mixture to initiate the reaction.
(vi) Incubate kinase reaction for 120 minutes at room temperature
(vii) Reactions are spotted onto P81 ion exchange paper (Whatman #3698-915)
(viii) Wash filters extensively in 0.1% phosphoric acid.
(ix) Dry filters and measure counts in scintillation counter
Recombinant full length construct, N-terminal GST tagged, purified from insect cells.
No special measures were taken to activate this kinase.
Final concentration in assay=0.5 nM
Peptide sequence: [[…]]
Final concentration in assay=20 μM
No additional cofactors are added to the reaction mixture

[1] = Chk-1 kinase, Table 3, read-out: IC50
[2] = ranges given, read-out: IC50 values against Chk-1 kinase

Chk-1 kinase, sequence (O14757 whole entry): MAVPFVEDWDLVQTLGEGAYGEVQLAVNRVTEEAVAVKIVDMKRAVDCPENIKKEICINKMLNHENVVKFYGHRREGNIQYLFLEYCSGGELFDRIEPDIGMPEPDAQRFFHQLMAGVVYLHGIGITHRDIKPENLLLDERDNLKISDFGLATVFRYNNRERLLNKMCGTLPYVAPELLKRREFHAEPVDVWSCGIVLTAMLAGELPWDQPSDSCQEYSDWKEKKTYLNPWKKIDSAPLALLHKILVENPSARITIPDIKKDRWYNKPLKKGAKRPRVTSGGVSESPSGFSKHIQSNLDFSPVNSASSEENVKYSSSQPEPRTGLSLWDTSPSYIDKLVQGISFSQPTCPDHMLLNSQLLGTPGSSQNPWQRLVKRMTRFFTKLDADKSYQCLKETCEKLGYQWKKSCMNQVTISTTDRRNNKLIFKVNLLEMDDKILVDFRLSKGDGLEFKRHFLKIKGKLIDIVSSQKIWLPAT

| SMILES | IC50 [1] [nM] | IC50 [2] [nM] | IC50 (comparative tests, Example 70, read-out: Chk-1 IC50) [nM] | fold improvement in potency against Chk-1 (relative to Compound 338 of WO02/070494 (alkylene chain 1 to 2 carbon atoms)) [fold] |
| --- | --- | --- | --- | --- |
| C[C@@H](NCCc1ccc(NC(=O)Nc2cnc(C#N)cn2)cc1Cl)c1ccc(F)cc1 [Example 24, 1-(3-Chloro-4-{2-[(R)-1-(4-fluoro-phenyl)-ethylamino]-ethyl}-phenyl)-3-(5-cyano-pyrazin-2-yl)-urea hydrochloride] | 13 | 10 to 100 | – | – |
| N#Cc1cnc(NC(=O)Nc2ccc(CCNCCc3ccc(F)cc3F)c(Cl)c2)cn1 [Example 28, 1-(3-Chloro-4-{2-[2-(2,4-difluoro-phenyl)-ethylamino]-ethyl}-phenyl)-3-(5-cyano-pyrazin-2-yl)-urea] | 47 | 10 to 100 | – | – |
| COc1cc(CCNCc2ccc(F)cc2F)ccc1NC(=O)Nc1cnc(C#N)cn1 [Example 30, 1-(5-Cyano-pyrazin-2-yl)-3-{4-[2-(2,4-difluoro-benzylamino)-ethyl]-2-methoxy-phenyl}-urea] | 6.4 | < 10 | – | – |
| COc1cc(CNCc2ccccc2)c(Cl)cc1NC(=O)Nc1cnc(C#N)cn1 [Example 56, 1-[4-(Benzylamino-methyl)-5-chloro-2-methoxy-phenyl]-3-(5-cyano-pyrazin-2-yl)-urea hydrochloride] | 2.8 | < 10 | – | – |
| COc1cc(CNCc2cccc(F)c2)ccc1NC(=O)Nc1cnc(C#N)cn1 [Example 58, 1-(5-Cyano-pyrazin-2-yl)-3-{4-[(3-fluoro-benzylamino)-methyl]-2-methoxy-phenyl}-urea hydrochloride] | 21 | – | – | – |
| COc1cc(CNCc2ccccc2F)ccc1NC(=O)Nc1cnc(C#N)cn1 [Example 59, 1-(5-Cyano-pyrazin-2-yl)-3-{4-[(2-fluoro-benzylamino)-methyl]-2-methoxy-phenyl}-urea hydrochloride] | 13 | – | – | – |

Other lines, results leading:

| IC50 [1] [nM] | IC50 [2] [nM] | IC50 (comparative tests, Example 70, read-out: Chk-1 IC50) [nM] | fold improvement in potency against Chk-1 (relative to Compound 338 of WO02/070494 (alkylene chain 1 to 2 carbon atoms)) [fold] | SMILES |
| --- | --- | --- | --- | --- |
| 27 | – | 27 | ~3 | COc1cc(CCNCc2ccccc2)ccc1NC(=O)Nc1cnc(C)cn1 [Example 32, 1-[4-(2-Benzylamino-ethyl)-2-methoxy-phenyl]-3-(5-methyl-pyrazin-2-yl)-urea hydrochloride] |
| 10 | – | – | – | Cc1cc(NC(=O)Nc2cnc(C#N)cn2)ccc1CCNCc1ccc(F)cc1 [Example 36, 1-(5-Cyano-pyrazin-2-yl)-3-{4-[2-(4-fluoro-benzylamino)-ethyl]-3-methyl-phenyl}-urea hydrochloride] |
| 3.3 | < 10 | – | – | COc1cc(CCN[C@H](C)c2ccc(F)cc2)ccc1NC(=O)Nc1cnc(C#N)cn1 [Example 43, 1-(5-Cyano-pyrazin-2-yl)-3-(4-{2-[(R)-1-(4-fluoro-phenyl)-ethylamino]-ethyl}-2-methoxy-phenyl)-urea] |
| 1.2 | < 10 | – | – | CCOc1cc(CCNCc2ccc(F)cc2)c(Cl)cc1NC(=O)Nc1cnc(C#N)cn1 [Example 45, 1-{5-Chloro-2-ethoxy-4-[2-(4-fluoro-benzylamino)-ethyl]-phenyl}-3-(5-cyano-pyrazin-2-yl)-urea hydrochloride] |
| 0.32 | < 10 | – | – | CC(C)Oc1cc(CCNCc2ccc(F)cc2)c(Cl)cc1NC(=O)Nc1cnc(C#N)cn1 [Example 46, 1-{5-Chloro-4-[2-(4-fluoro-benzylamino)-ethyl]-2-isopropoxy-phenyl}-3-(5-cyano-pyrazin-2-yl)-urea hydrochloride] |
| 8.4 | < 10 | – | – | COc1cc(OCCNCc2ccc(F)cc2)c(Cl)cc1NC(=O)Nc1cnc(C#N)cn1 [Example 47, 1-{5-Chloro-4-[2-(4-fluoro-benzylamino)-ethoxy]-2-methoxy-phenyl}-3-(5-cyano-pyrazin-2-yl)-urea hydrochloride] |
| 0.13 | < 10 | – | – | COc1cc(CCN[C@@H](C)c2ccc(N3CCNCC3)cc2)c(Cl)cc1NC(=O)Nc1cnc(C#N)cn1 [Example 52, 1-(5-Chloro-2-methoxy-4-{2-[(S)-1-(4-piperazin-1-yl-phenyl)-ethylamino]-ethyl}-phenyl)-3-(5-cyano-pyrazin-2-yl)-urea hydrochloride] |
